# Data from paper PMC11491488 (Scientific Reports, 2024).
# Key:
# [1] = test system: gram-positive Staphylococcus aureus (S. aureus); experiment: MIC assay, percentage growth inhibition, serial dilution in 96-well plates; assay type: cell-based; settings: for inhibition of bacterial cells: at higher concentrations
# [2] = test system: gram-negative Pseudomonas aeruginosa (P. aeruginosa); experiment: as above; assay type: cell-based; settings: for inhibition of bacterial cells: at higher concentrations
Compound,inhibition of bacterial cells [1] [%],inhibition of bacterial cells [2] [%],percent of S. aureus killed ([1]; 12 µg/mL) [%],percent of P. aeruginosa killed ([2]; 4 µg/mL) [%],"inhibition at 128 µg/mL ([1]; Staphylococcus aureus, read-out: inhibitory effect against S. aureus) [%]","inhibition at 40 µg/mL ([2]; Pseudomonas aeruginosa, read-out: inhibitory effect against P. aeruginosa) [%]"
"C[C@H]1COc2c(N3CCN(C)CC3)c(F)cc3c(=O)c(C(=O)O)cn1c23 [LEVO, levofloxacin]",90,90,,,,
"O=C(O)c1cn(C2CC2)c2cc(N3CCNCC3)c(F)cc2c1=O [CIPRO, ciprofloxacin]",90,90,98.30 ± 0.26,100.67 ± 0.39,,
"CCn1cc(C(=O)O)c(=O)c2cc(F)c(N3CCNCC3)cc21 [NOR, norfloxacin]",90,90,,,97.9 ± 0.38,100.4 ± 0.17
